Assay [1] concerns the target T1, HIF-2α (Homo sapiens, UniProt Q99814). As to the kind of experiment: HIF-2α Luciferase Reporter Assay (serum), HRE-luciferase 786-0 cells in 100% human serum. Type of assay: cell-based. Particulars: for IC50: 100% human serum, 786-0 reporter cells, overnight incubation, read-out: Serum Potency; for Serum Shift (approximate): ratio of IC50 in 100% serum to IC50 in serum free conditions. How it is done:
(§1) Generation of HIF-2α Luciferase 786-0 Cell Line:
(§2) Stable cell lines were generated by transducing 786-0 cells (ATCC, CRL-1932) with Cignal Lenti HIF Luc Reporter lentivirus (CLS-007L, Qiagen) according to the manufacturer's guidelines. In brief, 0.3×10^6 786-0 cells were transduced with lentivirus at a multiplicity of infection (MOI) of 25 for 24 hours. After transduction, cells were replenished with fresh RPMI 1640 Medium (Cat. No. 11875085, Thermo Fisher) supplemented with 10% FBS (Cat. No. A3160502, Gibco), 2 mM GlutaMAX™ (Cat. No. 35050-061, Invitrogen) and 100 units of penicillin and 100 μg of streptomycin/mL (Cat. No 15070063, Thermo Fisher) for another 24 hours. Antibiotic selection was performed in cell media containing 4 μg/mL of puromycin. After 7 days of antibiotic selection, stable pools of surviving cells were expanded and used in a luciferase reporter assay.
HIF-2α Luciferase Reporter Assay (Serum):
An HRE-luciferase stable reporter 786-0 cell line was maintained in active culture using RPMI 1640 (GIBCO) media supplemented with 1% penicillin-streptomycin, 1% GlutaMAX™, 10% FBS-One Shot (GIBCO) and 4 ug/ml of puromycin (Invitrogen). On the day of the assay, cells were harvested using StemPro™ Accutase™ cell dissociation reagent (GIBCO) and resuspended at 1.5 million cells per milliliter in Opti-MEM™ (GIBCO). 20 ul/well of the resuspended cells were dispensed into a 384 white tissue culture-treated microplate (Corning) and allowed to incubate at 37° C., 5% CO2 for 3 hours. Compounds were prepared by dispensing 0.8 ul of compound in 100% DMSO into a Greiner plate containing 40 ul/well of 100% human serum (Bioreclamation IVT). After 3 hours, media was removed via centrifugation at 500 RPM for 30 seconds and 30 ul/well of compound diluted in human serum was added. The plate was incubated overnight at 37° C., 5% CO2. The following day, ONE-Glo™ was prepared per vendors instructions. The cell plate was removed from the incubator and the human serum was removed from the plate using centrifugation at 500 RPM for 30 seconds. Following the removal of human serum, 40 ul/well of room temperature Opti-MEM™ was added to the plate and allowed to equilibrate to room temperature for 2 hours. 40 ul/well of ONE-Glo™ reagent was added and allowed to incubate for 10 minutes before reading the luminescence signal on the Envision (PerkinElmer). Data was analyzed using 4-parameter logistic equation to generate IC50.
In general terms: Reporter assays use an easily measured gene product as a stand-in for the process of interest.

Assay [2] concerns the target T1, HIF-2α. As to the kind of experiment: HIF-2α Luciferase Reporter Assay (serum free) in HIF-Luc-786-0 cells. In kind it is cell-based. Particulars: Opti-MEM, 786-0 reporter cells, 20 hours incubation. On the procedure:
as §1, §2
HIF-2α Luciferase Reporter Assay (Serum Free):
On day one, 20 uL of HIF-Luc-786-0 cells in Opti-MEM™ (Cat. No. 31985088, Thermo Fisher) were seeded into each well of a 384 well white opaque plate (Corning 3570) and incubated at 37° C. and 5% CO2. Twenty microliters of 2× test compounds in Opti-MEM™ were added to cells after 4 hours of incubation. Final assay conditions comprised 20,000 cells per well in 1% DMSO with test compound concentrations ranging from 50 uM to 0 uM. After 20 hours incubation at 37° C. and 5% CO2, luciferase activity was determined using ONE-Glo™ Luciferase Assay Reagent (E6110, Promega) following the manufacture's recommended procedure. Briefly, 40 uL of ONE-Glo™ luciferase reagents were added to each well and luciferase signals were measured using an Envision 2102 Multilabel Reader. Percentage maximum activity in each test well was calculated based on DMSO (maximum activity) and no cell control wells (baseline activity). The IC50 values of the test compounds were determined from compound dose response curves fitted using a standard four parameter fit equation.

Experimental findings from patent US12071411B2, “Inhibitors of HIF-2α and methods of use thereof” (ARCUS BIOSCIENCES, INC., priority 2021, dated 2024) are described below.

T1 sequence (Q99814 whole entry): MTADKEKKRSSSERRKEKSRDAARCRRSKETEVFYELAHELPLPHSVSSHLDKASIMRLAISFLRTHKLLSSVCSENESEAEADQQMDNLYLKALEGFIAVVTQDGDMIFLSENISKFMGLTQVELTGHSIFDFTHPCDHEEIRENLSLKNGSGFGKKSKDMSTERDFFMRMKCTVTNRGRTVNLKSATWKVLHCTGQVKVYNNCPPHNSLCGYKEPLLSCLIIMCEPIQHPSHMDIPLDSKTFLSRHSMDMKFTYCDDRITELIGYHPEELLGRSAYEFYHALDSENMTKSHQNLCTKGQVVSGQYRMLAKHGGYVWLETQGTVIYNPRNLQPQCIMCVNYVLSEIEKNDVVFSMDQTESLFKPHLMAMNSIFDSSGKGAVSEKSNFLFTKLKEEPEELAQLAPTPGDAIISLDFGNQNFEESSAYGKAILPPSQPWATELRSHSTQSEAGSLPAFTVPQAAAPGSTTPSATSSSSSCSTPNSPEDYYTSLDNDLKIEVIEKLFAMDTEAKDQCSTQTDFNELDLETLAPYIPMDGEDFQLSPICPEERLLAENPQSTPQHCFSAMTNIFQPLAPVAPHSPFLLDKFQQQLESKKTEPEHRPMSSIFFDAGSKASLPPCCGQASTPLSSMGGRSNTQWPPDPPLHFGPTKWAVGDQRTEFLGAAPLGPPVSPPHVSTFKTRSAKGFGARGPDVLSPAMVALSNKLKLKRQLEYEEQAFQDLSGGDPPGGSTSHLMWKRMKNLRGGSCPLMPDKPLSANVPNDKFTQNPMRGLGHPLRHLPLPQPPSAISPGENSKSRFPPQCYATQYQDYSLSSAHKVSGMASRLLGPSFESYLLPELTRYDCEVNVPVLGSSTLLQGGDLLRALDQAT

Turning to `O[C@H]1c2c(C(F)(F)F)nn([C@H]3CCC[C@H](C(F)(F)F)C3)c2CC1(F)F` [Example 81, (4S)-5,5-difluoro-3-(trifluoromethyl)-1-[(1S,3S)-3-(trifluoromethyl)cyclohexyl]-1H,4H,5H,6H-cyclopenta[c]pyrazol-4-ol], at HIF-2α [1], the IC50 was above 1000 nM and the “Serum Shift (approximate)” value is listed as 49. For the same molecule, the IC50 at HIF-2α [2] lay in the range of 100 to 1000 nM. For `O[C@H]1c2c(C(F)(F)F)nn(C[C@H](F)C3CC3)c2CCC1(F)F` (single isomer, unassigned) [26/27 DIAST-2] the same measures were above 1000 nM, 10 and 100 to 1000 nM. `F[C@H]1c2c(C(F)(F)F)nn(CCCC(F)(F)F)c2CCC1(F)F` [Example 48, (4S)-4,5,5-trifluoro-1-(4,4,4-trifluorobutyl)-3-(trifluoromethyl)-6,7-dihydro-4H-indazole] gave an IC50 against HIF-2α [2] above 1000 nM. Regarding `O[C@@H]1c2c(C(F)(F)F)nn([C@H]3CC[C@H](F)[C@H](F)C3)c2[C@H](F)C1(F)F` (single isomer, unassigned) [Example 154], the IC50 on HIF-2α [1] was 100 to 1000 nM; against HIF-2α [2], below 100 nM. Besides, the “Serum Shift (approximate)” value on HIF-2α [1] turned out to be 9. For `O[C@H]1c2c(C(F)(F)F)nn([C@H]3CC[C@H](OC(F)F)C3)c2CC1(F)F` (racemic) [Example 110, (4S)-1-[(1R,3R)-3-(difluoromethoxy)cyclopentyl]-5,5-difluoro-3-(trifluoromethyl)-1H,4H,5H,6H-cyclopenta[c]pyrazol-4-ol and (4S)-1-[(1S,3S)-3-(difluoromethoxy)cyclopentyl]-5,5-difluoro-3-(trifluoromethyl)-1H,4H,5H,6H-cyclopenta[c]pyrazol-4-ol], in that order: above 1000 nM, below 100 nM and 225. `O=S1(=O)CCCC(n2nc(C(F)(F)F)c3c2CC(F)(F)[C@H]3O)C1` (stereo partly drawn) [Example 86, 3-[(4S)-5,5-difluoro-4-hydroxy-3-(trifluoromethyl)-1H,4H,5H,6H-cyclopenta[c]pyrazol-1-yl]-1λ^6-thiane-1,1-dione]: on HIF-2α [1], the IC50 lay within 100 to 1000 nM and the “Serum Shift (approximate)” value came to 3. Moreover, the IC50 against HIF-2α [2] lay in the range of 100 to 1000 nM.

On to `CC(CCn1nc(C(F)(F)F)c2c1CCC(F)(F)[C@H]2O)OC(F)(F)F` (stereo partly drawn) [Example 14, (4S)-5,5-difluoro-1-[3-(trifluoromethoxy)butyl]-3-(trifluoromethyl)-6,7-dihydro-4H-indazol-4-ol], for which, on HIF-2α [1], the IC50 was below 100 nM and the “Serum Shift (approximate)” value was found to be 6. At HIF-2α [2], the IC50 is below 100 nM. In the case of `O[C@H]1c2c(C(F)(F)F)nn([C@H]3CC[C@H](F)[C@H](F)C3)c2[C@@H](F)C1(F)F` [Example 157, (4S,6R)-1-[(1S,3R,4S)-3,4-difluorocyclohexyl]-5,5,6-trifluoro-3-(trifluoromethyl)-4,6-dihydrocyclopenta[c]pyrazol-4-ol], on HIF-2α [1], the IC50 was below 100 nM and the “Serum Shift (approximate)” value stood at 3. In addition, the IC50 at HIF-2α [2] is below 100 nM. `O[C@H]1c2c(C(F)(F)F)nn(Cc3cc(C(F)(F)F)no3)c2CCC1(F)F` [Example 4, (4S)-5,5-difluoro-3-(trifluoromethyl)-1-[[3-(trifluoromethyl)-1,2-oxazol-5-yl]methyl]-6,7-dihydro-4H-indazol-4-ol] gave an IC50 against HIF-2α [2] above 1000 nM. The same measure, in the same setting: the result for `O[C@H]1c2c(C(F)(F)F)nn([C@H]3CC[C@H](F)C[C@@H]3F)c2CC1(F)F` (single isomer, unassigned) [97/98 DIAST-2] reads below 100 nM; that for `O[C@H]1c2c(C(F)(F)F)nn(CC(F)(F)C3CC3)c2CCC1(F)F` [Example 28, (4S)-1-(2-cyclopropyl-2,2-difluoroethyl)-5,5-difluoro-3-(trifluoromethyl)-4,5,6,7-tetrahydro-1H-indazol-4-ol], above 1000 nM; that for `O[C@H]1c2c(C(F)(F)F)nn(-c3ccc(C(F)(F)F)nc3)c2CC1(F)F` [Example 68, (4S)-5,5-difluoro-3-(trifluoromethyl)-1-[6-(trifluoromethyl)pyridin-3-yl]-4,6-dihydrocyclopenta[c]pyrazol-4-ol], below 100 nM. Still for that read-out and setting: with `O[C@H]1c2c(C(F)(F)F)nn(C[C@@H](F)C3CC3)c2CCC1(F)F` (single isomer, unassigned) [26/27 DIAST-1] the figure was above 1000 nM; with `O[C@H]1c2c(C(F)(F)F)nn([C@@H]3CCO[C@H](C(F)(F)F)C3)c2[C@@H](F)[C@H]1F` (single isomer, unassigned) [150/151 DIAST-2], above 1000 nM; with `COCC(C)CCn1nc(C(F)(F)F)c2c1CCC(F)(F)[C@H]2O` (stereo partly drawn) [Example 6, (4S)-5,5-difluoro-1-(4-methoxy-3-methylbutyl)-3-(trifluoromethyl)-6,7-dihydro-4H-indazol-4-ol], above 1000 nM. The same measure, in the same setting: the result for `C[C@]1(OC(F)F)C[C@@H](Cn2nc(C(F)(F)F)c3c2CCC(F)(F)[C@H]3O)C1` [Example 19, (4S)-1-[[3-(difluoromethoxy)-3-methylcyclobutyl]methyl]-5,5-difluoro-3-(trifluoromethyl)-6,7-dihydro-4H-indazol-4-ol] reads above 1000 nM; that for `O[C@H]1c2c(C(F)(F)F)nn(C3CCCCC3)c2CCC1(F)F` [Example 35, (4S)-1-cyclohexyl-5,5-difluoro-3-(trifluoromethyl)-6,7-dihydro-4H-indazol-4-ol], above 1000 nM. As for `O[C@H]1c2c(C(F)(F)F)nn([C@@H]3CCO[C@@H](C(F)(F)F)C3)c2CC1(F)F` (single isomer, unassigned) [92/93 DIAST-1], the IC50 against HIF-2α [2] was below 100 nM. For `CCC(F)(F)Cn1nc(C(F)(F)F)c2c1CCC(F)(F)[C@H]2O` [Example 29, (4S)-1-(2,2-difluorobutyl)-5,5-difluoro-3-(trifluoromethyl)-6,7-dihydro-4H-indazol-4-ol], at HIF-2α [2], the IC50 is above 1000 nM.

With `CO[C@H](CCn1nc(S(C)(=O)=O)c2c1CC(F)(F)[C@H]2O)C(F)(F)F` (racemic) [Example 107, (4S)-5,5-difluoro-3-methylsulfonyl-1-[(3R)-4,4,4-trifluoro-3-methoxybutyl]-4,6-dihydrocyclopenta[c]pyrazol-4-ol and (4S)-5,5-difluoro-3-methylsulfonyl-1-[(3S)-4,4,4-trifluoro-3-methoxybutyl]-4,6-dihydrocyclopenta[c]pyrazol-4-ol], at HIF-2α [2], the IC50 was below 100 nM. Still for that read-out and setting: with `O[C@H]1c2c(C(F)(F)F)nn(CCC3CCCO3)c2CCC1(F)F` (stereo partly drawn) [Example 34, (4S)-5,5-difluoro-1-[2-(oxolan-2-yl)ethyl]-3-(trifluoromethyl)-6,7-dihydro-4H-indazol-4-ol] the figure was above 1000 nM; with `O[C@H]1c2c(C(F)(F)F)nn([C@H]3CC[C@H](F)[C@H](F)C3)c2[C@H](F)C1(F)F` (single isomer, unassigned) [Example 155], above 1000 nM; with `CO[C@H]1CCCC[C@H]1n1nc(C(F)(F)F)c2c1CC(F)(F)[C@H]2O` (racemic) [Example 69, (4S)-5,5-difluoro-1-[(1R,2S)-2-methoxycyclohexyl]-3-(trifluoromethyl)-4,6-dihydrocyclopenta[c]pyrazol-4-ol and (4S)-5,5-difluoro-1-[(1S,2R)-2-methoxycyclohexyl]-3-(trifluoromethyl)-4,6-dihydrocyclopenta[c]pyrazol-4-ol], above 1000 nM. Same read-out and setting: with `O[C@H]1c2c(C(F)(F)F)nn([C@H]3C[C@@H](COC(F)F)C3)c2CCC1(F)F` [Example 105, (4S)-1-[3-(difluoromethoxymethyl)cyclobutyl]-5,5-difluoro-3-(trifluoromethyl)-6,7-dihydro-4H-indazol-4-ol] the figure was above 1000 nM.
